Tests used:
Assay in all cases: Test C preemergence
Format in all cases: in vivo
[1] = system: yellow nutsedge (Cyperus esculentus); conditions: Cyperus, pre-emergence, 336 h, scale 0 to 100, read-out: Plant response rating, Nutsedge, Yellow
Summary of the method: (§1)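 Visual ratings (0 none to 100 complete control) were made 13 to 15 days after treatment, relative to controls. Test chemicals, formulated in a non-phytotoxic solvent mixture with surfactant, were applied in the greenhouse preemergence to seeded loam-sand soil or postemergence to plants 2 to 18 cm tall.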

[2] = system: soybean (Glycine max); conditions: Glycine max, pre-emergence, scale 0 to 100, read-out: Plant response rating, Soybean
Summary of the method: as §1

[3] = system: winter wheat (Triticum aestivum); conditions: Triticum aestivum, pre-emergence, 336 h, scale 0 to 100, read-out: Plant response rating, Wheat
Summary of the method: as §1

[4] = system: blackgrass (Alopecurus myosuroides); conditions: Alopecurus myosuroides, pre-emergence, 336 h, scale 0 to 100, read-out: Plant response rating, Blackgrass
Summary of the method: as §1

[5] = system: giant foxtail (Setaria faberii); conditions: Setaria faberi, pre-emergence, 336 h, scale 0 to 100, read-out: Plant response rating, Foxtail, Giant
Summary of the method: as §1

[6] = system: Italian ryegrass (Lolium multiflorum); conditions: Lolium multiflorum, pre-emergence, 336 h, scale 0 to 100, read-out: Plant response rating, Ryegrass, Italian
Summary of the method: as §1

[7] = system: velvetleaf (Abutilon theophrasti); conditions: Abutilon theophrasti, pre-emergence, scale 0 to 100, read-out: Plant response rating, Velvetleaf
Summary of the method: as §1

[8] = system: pigweed (Amaranthus retroflexus); conditions: Amaranthus retroflexus, pre-emergence, 336 h, scale 0 to 100, read-out: Plant response rating, Pigweed
Summary of the method: as §1

[9] = system: corn (Zea mays); conditions: Zea mays, pre-emergence, 336 h, scale 0 to 100
Summary of the method: as §1

[10] = system: ragweed (common ragweed, Ambrosia elatior); conditions: Ambrosia artemisiifolia, pre-emergence, 336 h, scale 0 to 100, read-out: Plant response rating, Ragweed
Summary of the method: as §1

[11] = system: lambsquarters (Chenopodium album); conditions: Chenopodium album, pre-emergence, 336 h, scale 0 to 100, read-out: Plant response rating, Lambsquarters
Summary of the method: as §1

[12] = system: barnyardgrass (Echinochloa crus-galli); conditions: Echinochloa crus-galli, pre-emergence, read-out: Plant response rating, Barnyardgrass
Summary of the method: as §1

[13] = system: large (Lg) crabgrass (Digitaria sanguinalis); conditions: Digitaria sanguinalis, pre-emergence, 336 h, scale 0 to 100, read-out: Plant response rating, Crabgrass, Large
Summary of the method: as §1

## N#Cc1cccc(Oc2ncc(Cl)cn2)c1Oc1ccc(Br)cn1 [Compound 15]
[1]; 31 g ai/ha, preemergence
  pest or weed control at 31 g/ha: 0%
[1]; 62 g ai/ha, preemergence
  pest or weed control at 62 g/ha: 0%
[1]; 125 g ai/ha, preemergence
  pest or weed control at 125 g/ha: 25%
[1]; Preemergence, 16 g ai/ha
  pest or weed control at 16 g/ha: 0%
[2]; 31 g ai/ha, preemergence
  plant injury at 31 g/ha: 30%
[2]; 62 g ai/ha, preemergence
  plant injury at 62 g/ha: 40%
[2]; 125 g ai/ha, preemergence
  plant injury at 125 g/ha: 60%
[2]; Preemergence, 16 g ai/ha
  plant injury at 16 g/ha: 20%
[3]; 31 g ai/ha, preemergence
  plant injury at 31 g/ha: 0%
[3]; 62 g ai/ha, preemergence
  plant injury at 62 g/ha: 5%
[3]; 125 g ai/ha, preemergence
  plant injury at 125 g/ha: 40%
[3]; Preemergence, 16 g ai/ha
  plant injury at 16 g/ha: 0%
[4]; 31 g ai/ha, preemergence
  pest or weed control at 31 g/ha: 0%
[4]; 62 g ai/ha, preemergence
  pest or weed control at 62 g/ha: 10%
[4]; 125 g ai/ha, preemergence
  pest or weed control at 125 g/ha: 80%
[4]; Preemergence, 16 g ai/ha
  pest or weed control at 16 g/ha: 0%
[5]; 31 g ai/ha, preemergence
  pest or weed control at 31 g/ha: 80%
[5]; 62 g ai/ha, preemergence
  pest or weed control at 62 g/ha: 100%
[5]; 125 g ai/ha, preemergence
  pest or weed control at 125 g/ha: 100%
[5]; Preemergence, 16 g ai/ha
  pest or weed control at 16 g/ha: 70%
[6]; 31 g ai/ha, preemergence
  pest or weed control at 31 g/ha: 5%
[6]; 62 g ai/ha, preemergence
  pest or weed control at 62 g/ha: 40%
[6]; 125 g ai/ha, preemergence
  pest or weed control at 125 g/ha: 60%
[6]; Preemergence, 16 g ai/ha
  pest or weed control at 16 g/ha: 0%
[7]; 31 g ai/ha, preemergence
  pest or weed control at 31 g/ha: 75%
[7]; 62 g ai/ha, preemergence
  pest or weed control at 62 g/ha: 90%
[7]; 125 g ai/ha, preemergence
  pest or weed control at 125 g/ha: 100%
[7]; Preemergence, 16 g ai/ha
  pest or weed control at 16 g/ha: 60%
[8]; 31 g ai/ha, preemergence
  pest or weed control at 31 g/ha: 100%
[8]; 62 g ai/ha, preemergence
  pest or weed control at 62 g/ha: 100%
[8]; 125 g ai/ha, preemergence
  pest or weed control at 125 g/ha: 100%
[8]; Preemergence, 16 g ai/ha
  pest or weed control at 16 g/ha: 80%
[9]; 31 g ai/ha, preemergence
  Corn plant response rating (crop injury, 0 = no effect, 100 = complete kill) at 31 g/ha: 0%
[9]; 62 g ai/ha, preemergence
  Corn plant response rating (crop injury, 0 = no effect, 100 = complete kill) at 62 g/ha: 5%
[9]; 125 g ai/ha, preemergence
  Corn plant response rating (crop injury, 0 = no effect, 100 = complete kill) at 125 g/ha: 40%
[9]; Preemergence, 16 g ai/ha
  Corn plant response rating (crop injury, 0 = no effect, 100 = complete kill) at 16 g/ha: 0%
[10]; 31 g ai/ha, preemergence
  pest or weed control at 31 g/ha: 30%
[10]; 62 g ai/ha, preemergence
  pest or weed control at 62 g/ha: 50%
[10]; 125 g ai/ha, preemergence
  pest or weed control at 125 g/ha: 40%
[10]; Preemergence, 16 g ai/ha
  pest or weed control at 16 g/ha: 0%
[11]; 31 g ai/ha, preemergence
  pest or weed control at 31 g/ha: 80%
[11]; 62 g ai/ha, preemergence
  pest or weed control at 62 g/ha: 98%
[11]; 125 g ai/ha, preemergence
  pest or weed control at 125 g/ha: 95%
[11]; Preemergence, 16 g ai/ha
  pest or weed control at 16 g/ha: 70%
[12]; 31 g ai/ha, preemergence, scale 0 to 100
  pest or weed control at 31 g/ha: 25%
[12]; 62 g ai/ha, preemergence, scale 0 to 100
  pest or weed control at 62 g/ha: 70%
[12]; 125 g ai/ha, preemergence, scale 0 to 100
  pest or weed control at 125 g/ha: 98%
[12]; Preemergence, 16 g ai/ha, scale 0 to 100 (0 no effect, 100 complete control)
  pest or weed control at 16 g/ha: 10%
[13]; 31 g ai/ha, preemergence
  pest or weed control at 31 g/ha: 100%
[13]; 62 g ai/ha, preemergence
  pest or weed control at 62 g/ha: 100%
[13]; 125 g ai/ha, preemergence
  pest or weed control at 125 g/ha: 100%
[13]; Preemergence, 16 g ai/ha
  pest or weed control at 16 g/ha: 75%
